# In article PMC4702177, “Discovering new mTOR inhibitors for cancer treatment through virtual screening methods and in vitro assays” (Scientific Reports, 2016):
# Experiments:
# [1] = system: caspase-3 activation and PARP cleavage in HeLa cells; assay: Western blot of apoptosis markers; assay type: cell-based, human; settings: 24 h, compared with control
# Protocol: To elucidate the mechanisms of cell death induced by 17, we analyzed the effect of 17 on nuclear morphology using Hoechst 33342 staining. […] This observation allowed for clear discrimination of treated cells from untreated non-apoptotic HeLa cells, which have a normal, round, and unpunctuated nucleus. […] The percentage of apoptotic HeLa cells were 6.5% and 7.7% at the concentrations of 2.74 and 5.48 μM, respectively (Fig. 6d). To further confirm the nuclear morphology observation, Western blotting was used to detect caspase-3 activation and PARP cleavage, two biochemical markers of apoptosis. […] The induction of apoptosis is positively correlated with the concentration of compound 17.
# […] Samples were prepared by lysing PBS-washed cells with RIPA buffer (Beyotime, Haimen, China) consisting of 1% Nonidet P-40, 0.5% sodium deoxycholate, 0.1% SDS, and 50 mM Tris-HCl, pH 7.4, supplemented with NaF, NaVO4, EDTA and a protease inhibitor cocktail (Roche). Proteins were subjected to SDS-PAGE gel electrophoresis and transferred onto a polyvinylidene difluoride membrane (Hybond-P; GE Healthcare Life Sciences, Piscataway, NJ). […] The densitometry of each band was quantified by FluorChem 8000 (AlphaInnotech, San Leandro, CA).
# PRKCD (PKC delta) = PRKCD (PKC delta) (Homo sapiens, UniProt Q05655); assay: SelectScreen kinase profiling; assay type: biochemical; settings: mean ± SD of triplicate
# Source text: (§1) To characterize the kinase selectivity of compound 17, we profiled its ability to bind to a panel of 24 structurally related kinases using the SelectScreen Kinase Profiling Service (Life Technologies Corporation, Madison, WI).
# [2] = target: PIK3CA/PIK3R1 (p110 alpha/p85 alpha) (Homo sapiens, UniProt P42336); assay: SelectScreen kinase profiling; assay type: biochemical; settings: mean ± SD of triplicate
# Chain of PIK3CA/PIK3R1 (p110 alpha/p85 alpha) (P42336 whole entry): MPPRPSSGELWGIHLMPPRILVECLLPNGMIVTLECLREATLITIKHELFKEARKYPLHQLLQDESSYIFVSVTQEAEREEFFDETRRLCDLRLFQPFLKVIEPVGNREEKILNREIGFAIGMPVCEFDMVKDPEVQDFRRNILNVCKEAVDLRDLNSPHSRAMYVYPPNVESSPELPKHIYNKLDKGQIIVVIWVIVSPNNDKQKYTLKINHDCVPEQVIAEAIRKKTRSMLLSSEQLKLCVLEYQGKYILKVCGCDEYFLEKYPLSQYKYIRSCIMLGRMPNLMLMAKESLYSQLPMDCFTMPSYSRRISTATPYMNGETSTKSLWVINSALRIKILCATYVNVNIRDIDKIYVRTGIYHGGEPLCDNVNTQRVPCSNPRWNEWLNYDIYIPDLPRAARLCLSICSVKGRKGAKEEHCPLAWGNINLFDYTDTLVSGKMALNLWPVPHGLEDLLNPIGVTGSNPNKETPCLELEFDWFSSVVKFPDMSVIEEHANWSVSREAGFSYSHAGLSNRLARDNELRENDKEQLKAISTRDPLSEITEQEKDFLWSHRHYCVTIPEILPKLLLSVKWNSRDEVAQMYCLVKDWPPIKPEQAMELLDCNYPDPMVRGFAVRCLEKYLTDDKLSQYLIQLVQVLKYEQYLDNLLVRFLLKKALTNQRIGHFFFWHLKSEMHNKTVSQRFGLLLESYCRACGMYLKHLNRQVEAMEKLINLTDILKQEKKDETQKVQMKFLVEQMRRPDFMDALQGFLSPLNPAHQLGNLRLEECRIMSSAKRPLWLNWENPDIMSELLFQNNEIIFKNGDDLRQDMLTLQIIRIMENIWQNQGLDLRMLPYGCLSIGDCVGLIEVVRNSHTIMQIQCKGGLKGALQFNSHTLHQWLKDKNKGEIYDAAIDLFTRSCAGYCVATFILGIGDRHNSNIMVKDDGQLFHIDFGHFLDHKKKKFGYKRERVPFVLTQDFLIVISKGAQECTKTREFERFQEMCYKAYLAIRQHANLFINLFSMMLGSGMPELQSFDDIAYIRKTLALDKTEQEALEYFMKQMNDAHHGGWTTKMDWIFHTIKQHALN
# Chain of PIK3CA/PIK3R1 (p110 alpha/p85 alpha) (P27986 whole entry partner): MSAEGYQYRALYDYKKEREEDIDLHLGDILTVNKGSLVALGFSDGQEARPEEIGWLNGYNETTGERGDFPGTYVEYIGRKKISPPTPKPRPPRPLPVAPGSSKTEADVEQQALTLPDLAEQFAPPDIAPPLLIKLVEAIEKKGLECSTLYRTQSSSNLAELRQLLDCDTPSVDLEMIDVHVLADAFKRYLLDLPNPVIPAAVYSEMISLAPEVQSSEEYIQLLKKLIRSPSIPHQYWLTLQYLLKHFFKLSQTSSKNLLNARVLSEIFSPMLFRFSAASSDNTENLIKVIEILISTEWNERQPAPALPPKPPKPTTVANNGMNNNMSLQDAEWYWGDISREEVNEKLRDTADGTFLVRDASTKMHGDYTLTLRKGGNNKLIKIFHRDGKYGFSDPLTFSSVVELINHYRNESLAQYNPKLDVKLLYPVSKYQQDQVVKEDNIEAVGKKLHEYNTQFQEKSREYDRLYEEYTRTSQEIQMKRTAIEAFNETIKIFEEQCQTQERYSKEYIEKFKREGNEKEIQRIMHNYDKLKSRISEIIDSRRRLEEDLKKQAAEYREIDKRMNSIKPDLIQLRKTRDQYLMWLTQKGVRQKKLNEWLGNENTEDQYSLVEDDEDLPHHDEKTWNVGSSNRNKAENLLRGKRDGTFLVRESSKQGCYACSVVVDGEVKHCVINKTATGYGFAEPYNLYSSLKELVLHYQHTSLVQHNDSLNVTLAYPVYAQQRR
# Source text: as §1
# PRKCA (PKC alpha) = PRKCA (PKC alpha) (Homo sapiens, UniProt P17252); assay: SelectScreen kinase profiling; assay type: biochemical; settings: mean ± SD of triplicate
# Source text: as §1
# MARK1 (MARK) = MARK1 (MARK) (Homo sapiens, UniProt Q9P0L2); assay: SelectScreen kinase profiling; assay type: biochemical; settings: mean ± SD of triplicate
# Source text: as §1
# PRKCB2 (PKC beta II) = PRKCB2 (PKC beta II) (Homo sapiens, UniProt P05771); assay: SelectScreen kinase profiling; assay type: biochemical; settings: mean ± SD of triplicate
# Source text: as §1
# PI4KB (PI4K beta) = PI4KB (PI4K beta) (Homo sapiens, UniProt Q9UBF8); assay: SelectScreen kinase profiling; assay type: biochemical; settings: mean ± SD of triplicate
# Source text: as §1
# RPS6KB1 (p70S6K) = RPS6KB1 (p70S6K) (Homo sapiens, UniProt P23443); assay: SelectScreen kinase profiling; assay type: biochemical; settings: mean ± SD of triplicate
# Source text: as §1
# AKT1 (PKB alpha) = AKT1 (PKB alpha) (Homo sapiens, UniProt P31749); assay: SelectScreen kinase profiling; assay type: biochemical; settings: mean ± SD of triplicate
# Source text: as §1
# AKT2 (PKB beta) = AKT2 (PKB beta) (Homo sapiens, UniProt P31751); assay: SelectScreen kinase profiling; assay type: biochemical; settings: mean ± SD of triplicate
# Source text: as §1
# CDK2/cyclin A = CDK2/cyclin A (Homo sapiens, UniProt P24941); assay: SelectScreen kinase profiling; assay type: biochemical; settings: mean ± SD of triplicate
# Source text: as §1
# PDK1 = PDK1 (Homo sapiens, UniProt O15530); assay: SelectScreen kinase profiling; assay type: biochemical; settings: mean ± SD of triplicate
# Chain of PDK1 (O15530 whole entry): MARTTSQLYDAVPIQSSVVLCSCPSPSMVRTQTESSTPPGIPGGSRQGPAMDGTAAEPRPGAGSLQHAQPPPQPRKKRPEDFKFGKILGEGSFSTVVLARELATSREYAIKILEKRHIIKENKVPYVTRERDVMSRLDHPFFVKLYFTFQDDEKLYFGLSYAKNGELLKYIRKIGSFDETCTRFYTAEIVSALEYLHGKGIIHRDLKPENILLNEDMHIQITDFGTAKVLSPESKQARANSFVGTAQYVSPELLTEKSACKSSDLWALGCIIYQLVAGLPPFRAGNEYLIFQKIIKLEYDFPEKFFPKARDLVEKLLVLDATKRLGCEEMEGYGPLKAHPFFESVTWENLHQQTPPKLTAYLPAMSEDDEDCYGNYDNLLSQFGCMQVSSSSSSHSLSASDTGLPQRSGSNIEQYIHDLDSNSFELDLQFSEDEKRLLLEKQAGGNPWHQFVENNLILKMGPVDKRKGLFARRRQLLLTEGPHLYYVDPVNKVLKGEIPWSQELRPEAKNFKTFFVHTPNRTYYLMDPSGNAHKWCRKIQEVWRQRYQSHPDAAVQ
# Source text: as §1
# PRKCB1 (PKC beta I) = PRKCB1 (PKC beta I) (Homo sapiens, UniProt P05771); assay: SelectScreen kinase profiling; assay type: biochemical; settings: mean ± SD of triplicate
# Chain of PRKCB1 (PKC beta I) (P05771 whole entry): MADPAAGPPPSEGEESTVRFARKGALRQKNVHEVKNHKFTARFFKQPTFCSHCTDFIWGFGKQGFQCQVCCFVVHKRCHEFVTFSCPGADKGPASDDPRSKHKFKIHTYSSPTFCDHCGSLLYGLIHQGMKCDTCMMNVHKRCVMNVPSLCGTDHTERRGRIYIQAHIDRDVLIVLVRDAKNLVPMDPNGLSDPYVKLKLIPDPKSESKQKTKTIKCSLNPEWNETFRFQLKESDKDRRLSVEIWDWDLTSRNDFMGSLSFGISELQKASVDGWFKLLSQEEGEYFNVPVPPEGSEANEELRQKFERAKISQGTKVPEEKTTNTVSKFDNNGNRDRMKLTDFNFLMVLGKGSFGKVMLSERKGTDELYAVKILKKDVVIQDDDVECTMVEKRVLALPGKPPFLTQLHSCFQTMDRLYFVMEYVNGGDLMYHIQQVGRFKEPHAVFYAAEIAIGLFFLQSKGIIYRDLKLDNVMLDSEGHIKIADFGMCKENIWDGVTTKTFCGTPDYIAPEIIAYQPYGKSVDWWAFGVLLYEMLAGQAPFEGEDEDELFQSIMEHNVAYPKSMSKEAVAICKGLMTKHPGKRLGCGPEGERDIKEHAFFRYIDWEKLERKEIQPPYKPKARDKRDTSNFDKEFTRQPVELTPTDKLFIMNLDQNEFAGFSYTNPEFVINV
# Source text: as §1
# PIK3C2B (PI3K-C2 beta) = PIK3C2B (PI3K-C2 beta) (Homo sapiens, UniProt O00750); assay: SelectScreen kinase profiling; assay type: biochemical; settings: mean ± SD of triplicate
# Source text: as §1
# AKT3 (PKB gamma) = AKT3 (PKB gamma) (Homo sapiens, UniProt Q9Y243); assay: SelectScreen kinase profiling; assay type: biochemical; settings: mean ± SD of triplicate
# Source text: as §1
# [3] = target: PIK3CD/PIK3R1 (p110 delta/p85 alpha) (Homo sapiens, UniProt O00329); assay: SelectScreen kinase profiling; assay type: biochemical; settings: mean ± SD of triplicate
# Source text: as §1
# PIK3C3 (hVPS34) = PIK3C3 (hVPS34) (Homo sapiens, UniProt Q8NEB9); assay: SelectScreen kinase profiling; assay type: biochemical; settings: mean ± SD of triplicate
# Source text: as §1
# PIK3CG (p110 gamma) = PIK3CG (p110 gamma) (Homo sapiens, UniProt P48736); assay: SelectScreen kinase profiling; assay type: biochemical; settings: mean ± SD of triplicate
# Source text: as §1
# FRAP1 (mTOR) = FRAP1 (mTOR) (Homo sapiens, UniProt P42345); assay: SelectScreen kinase profiling; assay type: biochemical; settings: mean ± SD of triplicate
# Source text: as §1
# CDK1/cyclin B = CDK1/cyclin B (Homo sapiens, UniProt P06493); assay: SelectScreen kinase profiling; assay type: biochemical; settings: mean ± SD of triplicate
# Source text: as §1
# DNA-PK = DNA-PK (Homo sapiens, UniProt P78527); assay: SelectScreen kinase profiling; assay type: biochemical; settings: mean ± SD of triplicate
# Source text: as §1
# AMPK A1/B1/G1 = AMPK A1/B1/G1 (Homo sapiens, UniProt Q13131); assay: SelectScreen kinase profiling; assay type: biochemical; settings: mean ± SD of triplicate
# Chain of AMPK A1/B1/G1 (Q13131 whole entry): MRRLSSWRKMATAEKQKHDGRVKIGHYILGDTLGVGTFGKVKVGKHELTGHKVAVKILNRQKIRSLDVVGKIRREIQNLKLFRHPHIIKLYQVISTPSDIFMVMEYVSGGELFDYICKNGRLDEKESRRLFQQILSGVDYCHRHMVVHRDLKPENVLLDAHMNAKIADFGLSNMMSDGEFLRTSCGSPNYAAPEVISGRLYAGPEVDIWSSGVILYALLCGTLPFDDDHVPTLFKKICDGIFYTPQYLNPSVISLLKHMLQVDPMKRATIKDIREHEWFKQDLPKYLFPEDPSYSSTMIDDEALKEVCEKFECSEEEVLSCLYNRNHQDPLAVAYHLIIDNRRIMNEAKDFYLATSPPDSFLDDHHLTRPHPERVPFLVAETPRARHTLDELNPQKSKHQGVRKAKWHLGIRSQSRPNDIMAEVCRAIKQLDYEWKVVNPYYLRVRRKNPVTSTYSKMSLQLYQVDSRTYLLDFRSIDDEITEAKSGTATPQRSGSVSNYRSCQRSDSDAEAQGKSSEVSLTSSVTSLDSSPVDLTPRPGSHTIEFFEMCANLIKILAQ
# Chain of AMPK A1/B1/G1 (Q9Y478 whole entry partner): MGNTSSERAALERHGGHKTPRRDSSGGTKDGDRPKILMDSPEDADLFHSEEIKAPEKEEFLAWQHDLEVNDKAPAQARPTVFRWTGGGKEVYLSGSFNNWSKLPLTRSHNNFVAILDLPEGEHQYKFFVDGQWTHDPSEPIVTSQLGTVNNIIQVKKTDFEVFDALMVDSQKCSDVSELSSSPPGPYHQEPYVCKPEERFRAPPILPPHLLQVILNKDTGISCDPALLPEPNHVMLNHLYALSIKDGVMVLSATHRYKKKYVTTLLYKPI
# Chain of AMPK A1/B1/G1 (P54619 whole entry partner): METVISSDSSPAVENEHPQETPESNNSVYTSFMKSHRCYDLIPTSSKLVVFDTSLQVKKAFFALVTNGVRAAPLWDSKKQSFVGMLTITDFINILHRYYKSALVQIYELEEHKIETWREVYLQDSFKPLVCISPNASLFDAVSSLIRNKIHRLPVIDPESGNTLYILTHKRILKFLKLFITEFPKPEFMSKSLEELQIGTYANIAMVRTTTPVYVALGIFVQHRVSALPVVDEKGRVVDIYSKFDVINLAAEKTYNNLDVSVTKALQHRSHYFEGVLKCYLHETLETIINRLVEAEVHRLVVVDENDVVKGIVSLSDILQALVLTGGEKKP
# Source text: as §1
# AMPK A2/B1/G1 = AMPK A2/B1/G1 (Homo sapiens, UniProt P54646); assay: SelectScreen kinase profiling; assay type: biochemical; settings: mean ± SD of triplicate
# Source text: as §1
# IKBKB (IKK beta) = IKBKB (IKK beta) (Homo sapiens, UniProt O14920); assay: SelectScreen kinase profiling; assay type: biochemical; settings: mean ± SD of triplicate
# Source text: as §1
# PIK3C2A (PI3K-C2 alpha) = PIK3C2A (PI3K-C2 alpha) (Homo sapiens, UniProt O00443); assay: SelectScreen kinase profiling; assay type: biochemical; settings: mean ± SD of triplicate
# Source text: as §1
structure (smiles),measurement,setting,value
Nc1nn2c(nc(N)c3c(N)n[nH]c32)c1/N=N/c1ccccc1 [Compound 17],levels of cleaved (activated) caspase-3 and PARP,[1],markedly increased
same,inhibition at 10 µM,PRKCD (PKC delta),-10.5 ± 9.55%
same,inhibition at 10 µM,[2],56.4 ± 4.16%
same,inhibition at 10 µM,PRKCA (PKC alpha),9.84 ± 3.05%
same,inhibition at 10 µM,MARK1 (MARK),-12.2 ± 4.24%
same,inhibition at 10 µM,PRKCB2 (PKC beta II),17.7 ± 4.98%
same,inhibition at 10 µM,PI4KB (PI4K beta),31.8 ± 1.18%
same,inhibition at 10 µM,RPS6KB1 (p70S6K),-1.25 ± 1.53%
same,inhibition at 10 µM,AKT1 (PKB alpha),22.7 ± 9.34%
same,inhibition at 10 µM,AKT2 (PKB beta),33.6 ± 3.23%
same,inhibition at 10 µM,CDK2/cyclin A,-1.54 ± 1.35%
same,inhibition at 10 µM,PDK1,3.94 ± 3.24%
same,inhibition at 10 µM,PRKCB1 (PKC beta I),9.54 ± 0.09%
same,inhibition at 10 µM,PIK3C2B (PI3K-C2 beta),39.3 ± 7.29%
same,inhibition at 10 µM,AKT3 (PKB gamma),11.7 ± 0.37%
same,inhibition at 10 µM,[3],41.4 ± 0.63%
same,inhibition at 10 µM,PIK3C3 (hVPS34),-6.75 ± 8.78%
same,inhibition at 10 µM,PIK3CG (p110 gamma),40.9 ± 1.19%
same,inhibition at 10 µM,FRAP1 (mTOR),16.9 ± 4.99%
same,inhibition at 10 µM,CDK1/cyclin B,3.09 ± 2.31%
same,inhibition at 10 µM,DNA-PK,61.9 ± 6.43%
same,inhibition at 10 µM,AMPK A1/B1/G1,17 ± 3.47%
same,inhibition at 10 µM,AMPK A2/B1/G1,33.8 ± 4.29%
same,inhibition at 10 µM,IKBKB (IKK beta),11.7 ± 1.62%
same,inhibition at 10 µM,PIK3C2A (PI3K-C2 alpha),28.6 ± 1.96%
